Key:
Type in all cases: cell-based
[1] = Inhibition of RPMI-8226 cell proliferation (CellTiter luminescent viability); settings: Homo sapiens; Table IA4, IRAK4 inhibitor-based; RPMI-8226, 10 nM, 96 hours; read-out: Inhibition Rate at 10 nM (%)
[2] = system: Human B-Cell Lymphoma Cells (RPMI-8226); test: as above; settings: Table IA4, IRAK4 inhibitor-based, RPMI-8226, 500 nM, 96 hours, read-out: Inhibition Rate at 500 nM (%)
[3] = system: Human T lymphocytic leukemia cell line (Jurkat); test: Inhibition of Jurkat cell proliferation (CellTiter luminescent viability); settings: 96 hours; for IC50: Table IA1, IRAK4 inhibitor-based, read-out: Inhibitory activity (IC50, nM) on tumor cell proliferation, Jurkat; for inhibition at 0.01 µM / inhibition at 0.5 µM: Homo sapiens, Table IF3, AR inhibitor-based; for inhibition at 0.01 µM: 10 nM, read-out: Inhibition Rate at 10 nM (%); for inhibition at 0.5 µM: 500 nM, read-out: Inhibition Rate at 500 nM (%)
[4] = system: Human Multiple myeloma cell line (MM.1S); test: Inhibition of MM.1S cell proliferation (CellTiter luminescent viability); settings: 96 hours; for IC50: Table IA1, IRAK4 inhibitor-based, read-out: Inhibitory activity (IC50, nM) on tumor cell proliferation, MM.1S; for inhibition at 0.01 µM / inhibition at 0.5 µM: Homo sapiens, MM1.S, Table IA5, IRAK4 inhibitor-based; for inhibition at 0.01 µM: 10 nM, read-out: Inhibition Rate at 10 nM (%); for inhibition at 0.5 µM: 500 nM, read-out: Inhibition Rate at 500 nM (%)
Outline: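 Cells are seeded in 96-well plates, cultured at 37 °C, 5% CO2, and treated next day with 5-fold serial compound dilutions (stock series from 2000 μM; 0.5 μL into 100 μL medium). Viability is read by CellTiter-Meiluncell luminescence after the set exposure, and IC50 is taken from growth-inhibition curves.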

[5] = system: Human diffuse large B-cell lymphoma cell line (TMD8); test: Inhibition of TMD8 cell proliferation (CellTiter luminescent viability); settings: Homo sapiens, TMD8, 96 h, Table IF1, AR inhibitor-based; for inhibition at 0.01 µM: TMD8, 10 nM, read-out: Inhibition Rate at 10 nM (%); for inhibition at 0.5 µM: TMD8, 500 nM, read-out: Inhibition Rate at 500 nM (%)

Compound | inhibition at 0.01 µM [1] [%] | inhibition at 0.5 µM [2] [%] | inhibition at 0.01 µM [5] [%] | inhibition at 0.5 µM [5] [%] | other results
O=C1CCN(N2C(=O)c3ccc(N4C5CC4CN(C[C@H]4CC[C@H](n6cc(NC(=O)c7cnn8ccc(N9C[C@H]%10C[C@@H]9CO%10)nc78)c(C(F)F)n6)CC4)C5)cc3C2=O)C(=O)N1 [GT-05242, 5-((1R,4R)-2-oxa-5-azabicyclo[2.2.1]heptan-5-yl)-N-(3-(difluoromethyl)-1-((1r,4R)-4-((6-(2-(2,4-dioxotetrahydropyrimidin-1(2H)-yl)-1,3-dioxoisoindolin-5-yl)-3,6-diazabicyclo[3.1.1]heptan-3-yl)methyl)cyclohexyl)-1H-pyrazol-4-yl)pyrazolo[1,5-a]pyrimidine-3-carboxamide] | 20 to 25 | 30 to 40 | – | – | –
O=C1CCN(N2Cc3cc(CN4CCC(n5cc(NC(=O)c6coc(-c7ccnc(NCC8CC8)c7)n6)c(C(F)F)n5)CC4)ccc3C2=O)C(=O)N1 [GT-04951, 2-(2-((cyclopropylmethyl)amino)pyridin-4-yl)-N-(3-(difluoromethyl)-1-(1-((2-(2,4-dioxotetrahydropyrimidin-1(2H)-yl)-1-oxoisoindolin-5-yl)methyl)piperidin-4-yl)-1H-pyrazol-4-yl) oxazole-4-carboxamide] | – | – | – | – | IC50 [3]: 100 to 300 nM; IC50 [4]: 10 to 50 nM
N#Cc1ccc(O[C@H]2CC[C@H](NC(=O)c3ccc(N4CCC(CN5CC6CCC5CN6c5ccc6c(c5)C(=O)N(N5CCC(=O)NC5=O)C6=O)CC4)nn3)CC2)cc1Cl (some centres unmarked) [GT-05832, N-((1r,4r)-4-(3-chloro-4-cyanophenoxy)cyclohexyl)-6-(4-((5-(2-(2,4-dioxotetrahydropyrimidin-1(2H)-yl)-1,3-dioxoisoindolin-5-yl)-2,5-diazabicyclo[2.2.2]octan-2-yl)methyl)piperidin-1-yl)pyridazine-3-carboxamide] | – | – | 10 to 15 | 40 to 60 | inhibition at 0.01 µM [3]: 0 to 5%; inhibition at 0.5 µM [3]: 20 to 30%
O=C1CCN(N2Cc3cc(CN4CCC(n5cc(NC(=O)c6cnn7ccc(N8CCOCC8)nc67)c(C(F)F)n5)CC4)ccc3C2=O)C(=O)N1 [GT-05749] | 25 to 30 | 15 to 20 | – | – | inhibition at 0.01 µM [4]: 20 to 25%; inhibition at 0.5 µM [4]: 80 to 100%
O=C1CCN(N2Cc3cc(CN4CCC(n5cc(NC(=O)c6cnn7ccc(N8C[C@H]9C[C@@H]8CO9)nc67)c(C(F)F)n5)CC4)ccc3C2=O)C(=O)N1 [GT-05028, 5-((1R,4R)-2-oxa-5-azabicyclo[2.2.1]heptan-5-yl)-N-(3-(difluoromethyl)-1-(1-((2-(2,4-dioxotetrahydropyrimidin-1(2H)-yl)-1-oxoisoindolin-5-yl)methyl)piperidin-4-yl)-1H-pyrazol-4-yl)pyrazolo[1,5-a]pyrimidine-3-carboxamide] | – | – | – | – | IC50 [3]: 100 to 300 nM; IC50 [4]: 10 to 50 nM
CC(C)(O)c1cc2nc(C3CCN(Cc4ccc5c(c4)CN(N4CCC(=O)NC4=O)C5=O)CC3)oc2cc1NC(=O)c1cccc(C(F)(F)F)n1 [GT-05748, N-(2-(1-((2-(2,4-dioxotetrahydropyrimidin-1(2H)-yl)-1-oxoisoindolin-5-yl)methyl)piperidin-4-yl)-5-(2-hydroxypropan-2-yl)benzo[d]oxazol-6-yl)-6-(trifluoromethyl) picolinamide] | 30 to 40 | 15 to 20 | – | – | –
N#Cc1ccc(O[C@H]2CC[C@H](NC(=O)c3ccc(N4CCC(CN5C[C@@H]6C[C@H]5CN6c5ccc6c(c5)C(=O)N(N5CCC(=O)NC5=O)C6=O)CC4)nn3)CC2)cc1Cl [GT-05226, N-((1r,4r)-4-(3-chloro-4-cyanophenoxy)cyclohexyl)-6-(4-(((1S,4S)-5-(2-(2,4-dioxotetrahydropyrimidin-1(2H)-yl)-1,3-dioxoisoindolin-5-yl)-2,5-diazabicyclo[2.2.1]heptan-2-yl)methyl)piperidin-1-yl)pyridazine-3-carboxamide] | – | – | 10 to 15 | 25 to 30 | –
CC1(C)[C@H](NC(=O)c2ccc(N3CCC(CN4CC5CCC4CN5c4ccc5c(c4)C(=O)N(N4CCC(=O)NC4=O)C5=O)CC3)nc2)C(C)(C)[C@H]1Oc1ccc(C#N)c(Cl)c1 (some centres unmarked) [GT-05834, N-((1r,3r)-3-(3-chloro-4-cyanophenoxy)-2,2,4,4-tetramethylcyclobutyl)-6-(4-((5-(2-(2,4-dioxotetrahydropyrimidin-1(2H)-yl)-1,3-dioxoisoindolin-5-yl)-2,5-diazabicyclo[2.2.2]octan-2-yl)methyl)piperidin-1-yl)nicotinamide] | – | – | 15 to 20 | 40 to 60 | inhibition at 0.01 µM [3]: 15 to 20%; inhibition at 0.5 µM [3]: 40 to 60%
O=C1CCN(N2C(=O)c3cccc(N4CCC(CN5CCC(n6cc(NC(=O)c7cnn8ccc(N9C[C@H]%10C[C@@H]9CO%10)nc78)c(C(F)F)n6)CC5)CC4)c3C2=O)C(=O)N1 [GT-05285, 5-((1R,4R)-2-oxa-5-azabicyclo[2.2.1]heptan-5-yl)-N-(3-(difluoromethyl)-1-(1-((1-(2-(2,4-dioxotetrahydropyrimidin-1(2H)-yl)-1,3-dioxoisoindolin-4-yl)piperidin-4-yl)methyl)piperidin-4-yl)-1H-pyrazol-4-yl)pyrazolo[1,5-a]pyrimidine-3-carboxamide] | 30 to 40 | 25 to 30 | – | – | inhibition at 0.01 µM [4]: 40 to 60%; inhibition at 0.5 µM [4]: 60 to 80%

— patent US20260364184A1, “COMPOUND BASED ON OXOISOINDOLINYL-SUBSTITUTED TETRAHYDROPYRIMIDINE-DIONE AND USE THEREOF” (GLUETACS THERAPEUTICS (SHANGHAI) CO., LTD., priority 2023, published 2026)
